For 13 compounds, IC50 results are on record in PubChem BioAssay AID1973 (The Scripps Research Institute Molecular Screening Center, 2009).

This assay concerns DLD-1 KLF5 promoter-luciferase reporter, luminescence. Briefly: KLF5 promoter reporter inhibitors, dose response, luminescence, DLD-1 cells, luciferase reporter (AID 1973).

The source made the active and inactive calls.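 How the source made its calls: active means IC50 dose giving half inhibition of the KLF5 reporter of 10 micromolar or lower; inactive means IC50 above 10 micromolar.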

Usually IC50 stands for the point on the concentration scale where inhibition reaches its midpoint. Consider `COc1ccc(N/N=C/c2c(C(=O)O)ccc3ccccc23)cc1`, for which the IC50 is 1690 nM.

On to `COc1ccccc1N1CCN(Cc2cc(Br)c(O)c3ncccc23)CC1`, for which the IC50 is 2680 nM.

Take `CCOC(=O)c1sc(NC(=O)c2sc(C)nc2C)nc1C`: the IC50 is > 39800 nM (inactive).

Regarding `CCCc1ccc(-c2ccc(/C=C/C(=O)O)cc2)nc1`, the IC50 was 416 nM.

In the case of `CC(C)(C)c1ccc(C(=O)O/N=C(\N)c2ccccc2)cc1`, the IC50 was 1750 nM.

Consider `CCOc1cc(Br)cc(/C=N/NC(=O)c2cccnc2)c1O`, for which the half-maximal inhibitory concentration (IC50) is 1660 nM.

Consider `CCc1ccc(NC(=O)c2cnn3ccccc23)cc1`, for which the IC50 was 1860 nM.

On to `Oc1ccc(N=Nc2ccccc2C(F)(F)F)c2cccnc12`, for which the IC50 is 1900 nM.

As to `Cc1cc(-c2ccccc2)n(-c2cc(N/N=C/c3ccccc3O)ncn2)n1`, the IC50 was 998 nM.

Consider `CN1CCN(c2ccc(-c3ccc4ccccc4n3)cc2)CC1`, for which the IC50 is 166 nM.

For `CC1CCN(Cc2c(C(=O)N/N=C/c3ccccc3O)nnn2-c2nonc2N)CC1`, the half-maximal inhibitory concentration (IC50) was 1810 nM.

As to `CC(C)(C)C(=O)Nc1ccc(NC(=O)c2ccco2)nc1`, the IC50 was 960 nM.

As for `COc1cc(/C=C/[N+](=O)[O-])ccc1OCc1cccc(C(=O)O)c1`, the half-maximal inhibitory concentration (IC50) was 2070 nM.
